Source: PubChem BioAssay AID328 (DTP/NCI, 2004)
Several values for one entry are separate records, joined by “and”; a condition that tells them apart may be missing. Identical values can stand only once. Toxic doses and inconclusive results are not listed.

System: BDF1 mice, P388 leukemia ip, median survival T/C
Test: NCI In Vivo Anticancer Drug Screen. Data for tumor model P388 Leukemia (intraperitoneal) in B6D2F1 (BDF1) mice
Conditions: endpoint: median survival time, higher = longer survival
Procedure, shortened: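 Steps: implant the tumour, treat one group with compound and another with vehicle, record survival, then divide treated by control.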

[1] = dose: 50.0 mg/kg/injection, schedule: Q01DX009 (ip), vehicle: saline with Tween-80
[2] = dose: 100.0 mg/kg/injection, schedule: Q01DX009 (ip), vehicle: saline with Tween-80
[3] = dose: 200.0 mg/kg/injection, schedule: Q01DX009 (ip), vehicle: saline with Tween-80

## COc1c(O)c(O)c2c3c(c(O)c4c2c1C(=O)C=C4C)C(C)(C)C(C)O3 (centres undefined)
dose: 50.0 mg/kg/injection, schedule: Q04DX001 (ip), vehicle: saline
  T/C: 104 % of control
dose: 100.0 mg/kg/injection, schedule: Q04DX001 (ip), vehicle: saline
  T/C: 100 % of control
dose: 200.0 mg/kg/injection, schedule: Q04DX001 (ip), vehicle: saline
  T/C: 100 % of control

## O=C(NC1CCC1C(=O)O)OCc1ccccc1 (centres undefined)
dose: 100.0 mg/kg/injection, schedule: Q04DX002 (ip), vehicle: saline with Tween-80
  T/C: 101 % of control
dose: 200.0 mg/kg/injection, schedule: Q04DX002 (ip), vehicle: saline with Tween-80
  T/C: 104 % of control
dose: 400.0 mg/kg/injection, schedule: Q04DX002 (ip), vehicle: saline with Tween-80
  T/C: 110 % of control

## CC12CC3(O)CCC1CCC2C(=O)C3 (centres undefined)
dose: 100.0 mg/kg/injection, schedule: Q04DX003 (ip), vehicle: saline
  T/C: 118 % of control
dose: 200.0 mg/kg/injection, schedule: Q04DX003 (ip), vehicle: saline
  T/C: 109 % of control
dose: 400.0 mg/kg/injection, schedule: Q04DX003 (ip), vehicle: saline
  T/C: 122 % of control

## C=CCN(CC=C)C(=O)OCC
dose: 100.0 mg/kg/injection, schedule: Q04DX003 (ip), vehicle: saline with Tween-80
  T/C: 100 % of control
dose: 200.0 mg/kg/injection, schedule: Q04DX003 (ip), vehicle: saline with Tween-80
  T/C: 120 % of control
dose: 400.0 mg/kg/injection, schedule: Q04DX003 (ip), vehicle: saline with Tween-80
  T/C: 104 % of control

## CCOC1=CCCCC1
dose: 100.0 mg/kg/injection, schedule: Q01DX009 (ip), vehicle: saline
  T/C: 113 % of control
dose: 200.0 mg/kg/injection, schedule: Q01DX009 (ip), vehicle: saline
  T/C: 115 % of control and 122 % of control
dose: 400.0 mg/kg/injection, schedule: Q01DX009 (ip), vehicle: saline
  T/C: 118 % of control

## CC(O)(C(N)=O)c1cc(Cl)ccc1Cl (centres undefined)
dose: 100.0 mg/kg/injection, schedule: Q01DX009 (ip), vehicle: water
  T/C: 110 % of control
dose: 100.0 mg/kg/injection, schedule: Q04DX003 (ip), vehicle: water
  T/C: 109 % of control
dose: 200.0 mg/kg/injection, schedule: Q01DX009 (ip), vehicle: water
  T/C: 110 % of control
dose: 200.0 mg/kg/injection, schedule: Q04DX003 (ip), vehicle: water
  T/C: 100 % of control
dose: 400.0 mg/kg/injection, schedule: Q01DX009 (ip), vehicle: water
  T/C: 90 % of control
dose: 400.0 mg/kg/injection, schedule: Q04DX003 (ip), vehicle: water
  T/C: 95 % of control

## Cc1cc2nc(Oc3ccccc3)nc(=O)n2o1
[1]
  T/C: 100 % of control and 117 % of control
[2]
  T/C: 106 % of control and 123 % of control
[3]
  T/C: 112 % of control and 121 % of control

## CCOC1(OCC)OC(c2ccccc2)=C(C#N)C(/C=C\c2ccccc2)C1(OCC)OCC (centres undefined)
[1]
  T/C: 92 % of control
[2]
  T/C: 92 % of control
[3]
  T/C: 90 % of control

## CC(C)NC(=O)OCc1c(COC(=O)NC(C)C)c(-c2ccc(Cl)c(Cl)c2)n2c1CCC2
dose: 12.5 mg/kg/injection, schedule: Q01DX009 (ip), vehicle: other
  T/C: 204 % of control
dose: 25.0 mg/kg/injection, schedule: Q01DX009 (ip), vehicle: other
  T/C: 214 % of control

## COc1ccc(N2c3ccccc3-c3cc[nH]c(=O)c3[C@H]2O)cc1OC
dose: 37.5 mg/kg/injection, schedule: Q01DX009 (ip), vehicle: Klucel (hydroxypropylcellulose) (HPC)
  T/C: 119 % of control
dose: 75.0 mg/kg/injection, schedule: Q01DX006 (ip), vehicle: Klucel (hydroxypropylcellulose) (HPC)
  T/C: 114 % of control
dose: 75.0 mg/kg/injection, schedule: Q01DX009 (ip), vehicle: Klucel (hydroxypropylcellulose) (HPC)
  T/C: 106 % of control
dose: 150.0 mg/kg/injection, schedule: Q01DX009 (ip), vehicle: Klucel (hydroxypropylcellulose) (HPC)
  T/C: 163 % of control

## O=C(CC(O)(C(F)(F)F)C(F)(F)F)c1ccc(Br)cc1
dose: 100.0 mg/kg/injection, schedule: Q01DX009 (ip), vehicle: other
  T/C: 91 % of control
dose: 100.0 mg/kg/injection, schedule: Q04DX003 (ip), vehicle: other
  T/C: 120 % of control
dose: 200.0 mg/kg/injection, schedule: Q01DX009 (ip), vehicle: other
  T/C: 91 % of control
dose: 200.0 mg/kg/injection, schedule: Q04DX003 (ip), vehicle: other
  T/C: 110 % of control
dose: 400.0 mg/kg/injection, schedule: Q01DX009 (ip), vehicle: other
  T/C: 91 % of control
dose: 400.0 mg/kg/injection, schedule: Q04DX003 (ip), vehicle: other
  T/C: 120 % of control
